Assay results from PubChem BioAssay AID1259407 (Chemical Carcinogenesis Research Information System (CCRIS), 2018).
Calls of active or inactive are those of the source. No rule for the calls is given here.

Test system: CCRIS mutagenicity, Ames/micronucleus/aberration tests
Test: CCRIS mutagenicity studies
[1] = Test System: AMES SALMONELLA TYPHIMURIUM, Strain/Indicator: TA98, Metabolic Activation: NONE, Method: PREINCUBATION
[2] = Test System: AMES SALMONELLA TYPHIMURIUM, Strain/Indicator: TA100, Metabolic Activation: NONE, Method: PREINCUBATION
[3] = Test System: AMES SALMONELLA TYPHIMURIUM, Strain/Indicator: TA1535, Metabolic Activation: NONE, Method: PREINCUBATION
[4] = Test System: AMES SALMONELLA TYPHIMURIUM, Strain/Indicator: TA1537, Metabolic Activation: NONE, Method: PREINCUBATION

`Nc1ccnc2ccccc12` was tested, and the mutagenic call [1] was “inactive; negative”, the mutagenic call (Test System: AMES SALMONELLA TYPHIMURIUM, Strain/Indicator: TA98, Metabolic Activation: RAT, LIVER, S-9, KANECHLOR 500 OR PHENOBARBITAL AND BETA-NAPHTHOFLAVONE, Method: PREINCUBATION) was “inactive; negative” and the mutagenic call [2] was “inactive; negative”. For the same compound, the mutagenic call (Test System: AMES SALMONELLA TYPHIMURIUM, Strain/Indicator: TA100, Metabolic Activation: RAT, LIVER, S-9, KANECHLOR 500 OR PHENOBARBITAL AND BETA-NAPHTHOFLAVONE, Method: PREINCUBATION) was “inactive; negative”.

For `O=[N+]([O-])c1ccc2c(ccc3c4ccccc4ccc23)c1`, the mutagenic call (Test System: AMES SALMONELLA TYPHIMURIUM, Strain/Indicator: TA98(1,8-DNP6), Metabolic Activation: NONE) was “active; positive”, the mutagenic call (Test System: AMES SALMONELLA TYPHIMURIUM, Strain/Indicator: TA98(1,8-DNP6), Metabolic Activation: RAT, LIVER, S-9, AROCLOR 1254) was “active; positive” and the mutagenic call (Test System: AMES SALMONELLA TYPHIMURIUM, Strain/Indicator: TA98(NR), Metabolic Activation: NONE) was “active; positive”. For the same compound, the mutagenic call (Test System: AMES SALMONELLA TYPHIMURIUM, Strain/Indicator: TA98(NR), Metabolic Activation: RAT, LIVER, S-9, AROCLOR 1254) was “active; positive”, the mutagenic call (Test System: AMES SALMONELLA TYPHIMURIUM, Strain/Indicator: TA98, Metabolic Activation: NONE) was “active; positive” and the mutagenic call (Test System: AMES SALMONELLA TYPHIMURIUM, Strain/Indicator: TA98, Metabolic Activation: RAT, LIVER, S-9, AROCLOR 1254) was “active; positive”. The mutagenic call (Test System: AMES SALMONELLA TYPHIMURIUM, Strain/Indicator: TA100(NR), Metabolic Activation: NONE) was “active; positive”, the mutagenic call (Test System: AMES SALMONELLA TYPHIMURIUM, Strain/Indicator: TA100(NR), Metabolic Activation: RAT, LIVER, S-9, AROCLOR 1254) was “active; positive” and the mutagenic call (Test System: AMES SALMONELLA TYPHIMURIUM, Strain/Indicator: TA100, Metabolic Activation: NONE) was “active; positive”. For the same compound, the mutagenic call (Test System: AMES SALMONELLA TYPHIMURIUM, Strain/Indicator: TA100, Metabolic Activation: RAT, LIVER, S-9, AROCLOR 1254) was “active; positive”, the mutagenic call (Test System: AMES SALMONELLA TYPHIMURIUM, Strain/Indicator: TA104, Metabolic Activation: NONE) was “active; positive” and the mutagenic call (Test System: AMES SALMONELLA TYPHIMURIUM, Strain/Indicator: TA104, Metabolic Activation: RAT, LIVER, S-9, AROCLOR 1254) was “active; positive”.

For `O=C(/C=C/c1ccccc1O)c1ccc(O)cc1O`, the mutagenic call (Test System: Ames Salmonella typhimurium, Strain/Indicator: TA102, Metabolic Activation: None, Method: Preincubation) was “inactive; negative” and the mutagenic call (Test System: Ames Salmonella typhimurium, Strain/Indicator: TA102, Metabolic Activation: Rat, Liver, S-9, Aroclor 1254 in 0.154 M KCl, Method: Preincubation) was “inactive; negative”.

`CC(C)(C)C1=CC(=CC=C2C=C(C(C)(C)C)C(=O)C(C(C)(C)C)=C2)C=C(C(C)(C)C)C1=O` was tested, and the mutagenic call [1] was “inactive; negative”, the mutagenic call (Test System: AMES SALMONELLA TYPHIMURIUM, Strain/Indicator: TA98, Metabolic Activation: RAT, LIVER, S-9, Method: PREINCUBATION) was “inactive; negative” and the mutagenic call [2] was “inactive; negative”. For the same compound, the mutagenic call (Test System: AMES SALMONELLA TYPHIMURIUM, Strain/Indicator: TA100, Metabolic Activation: RAT, LIVER, S-9, Method: PREINCUBATION) was “inactive; negative”.

With `CNC(=O)c1cccc(NCC(=O)NCCc2ccc(OC)c(OC)c2)c1` the mutagenic call [1] was “inactive; negative”, the mutagenic call (Test System: AMES SALMONELLA TYPHIMURIUM, Strain/Indicator: TA98, Metabolic Activation: S-9, Method: PREINCUBATION) was “inactive; negative” and the mutagenic call [2] was “inactive; negative”. For the same compound, the mutagenic call (Test System: AMES SALMONELLA TYPHIMURIUM, Strain/Indicator: TA100, Metabolic Activation: S-9, Method: PREINCUBATION) was “inactive; negative”, the mutagenic call [3] was “inactive; negative” and the mutagenic call (Test System: AMES SALMONELLA TYPHIMURIUM, Strain/Indicator: TA1535, Metabolic Activation: S-9, Method: PREINCUBATION) was “inactive; negative”. For the same compound, the mutagenic call [4] was “inactive; negative”, the mutagenic call (Test System: AMES SALMONELLA TYPHIMURIUM, Strain/Indicator: TA1537, Metabolic Activation: S-9, Method: PREINCUBATION) was “inactive; negative” and the mutagenic call (Test System: E. COLI, Strain/Indicator: WP2 UVRA, Metabolic Activation: NONE, Method: PREINCUBATION) was “inactive; negative”. The mutagenic call (Test System: E. COLI, Strain/Indicator: WP2 UVRA, Metabolic Activation: S-9, Method: PREINCUBATION) was “inactive; negative”.

For `Nc1ccc2c(c1)C(=O)/C(=N/Nc1ccc(-c3ccc(N/N=C4/C(=O)c5c(N)cc(S(=O)(=O)O)cc5C=C4S(=O)(=O)O)cc3)cc1)C(S(=O)(=O)O)=C2`, the mutagenic call (Test System: AMES SALMONELLA TYPHIMURIUM, Strain/Indicator: TA98, Metabolic Activation: HAMSTER, LIVER, S-9, AROCLOR 1254 (10%), Method: PREINCUBATION) was “active; positive”, the mutagenic call [1] was “active; positive” and the mutagenic call (Test System: AMES SALMONELLA TYPHIMURIUM, Strain/Indicator: TA98, Metabolic Activation: RAT, LIVER, S-9, AROCLOR 1254 (10%), Method: PREINCUBATION) was “inactive; negative”. For the same compound, the mutagenic call (Test System: AMES SALMONELLA TYPHIMURIUM, Strain/Indicator: TA100, Metabolic Activation: HAMSTER, LIVER, S-9, AROCLOR 1254 (10%), Method: PREINCUBATION) was “inactive; negative”, the mutagenic call [2] was “inactive; negative” and the mutagenic call (Test System: AMES SALMONELLA TYPHIMURIUM, Strain/Indicator: TA100, Metabolic Activation: RAT, LIVER, S-9, AROCLOR 1254 (10%), Method: PREINCUBATION) was “inactive; negative”. For the same compound, the mutagenic call (Test System: AMES SALMONELLA TYPHIMURIUM, Strain/Indicator: TA1535, Metabolic Activation: HAMSTER, LIVER, S-9, AROCLOR 1254 (10%), Method: PREINCUBATION) was “inactive; negative”, the mutagenic call [3] was “inactive; negative” and the mutagenic call (Test System: AMES SALMONELLA TYPHIMURIUM, Strain/Indicator: TA1535, Metabolic Activation: RAT, LIVER, S-9, AROCLOR 1254 (10%), Method: PREINCUBATION) was “inactive; negative”. For the same compound, the mutagenic call (Test System: AMES SALMONELLA TYPHIMURIUM, Strain/Indicator: TA1537, Metabolic Activation: HAMSTER, LIVER, S-9, AROCLOR 1254 (10%), Method: PREINCUBATION) was “inactive; negative”, the mutagenic call [4] was “active; positive” and the mutagenic call (Test System: AMES SALMONELLA TYPHIMURIUM, Strain/Indicator: TA1537, Metabolic Activation: RAT, LIVER, S-9, AROCLOR 1254 (10%), Method: PREINCUBATION) was “inactive; negative”.

`CCC(=O)C(=O)CC` was tested, and the mutagenic call (Test System: AMES SALMONELLA TYPHIMURIUM, Strain/Indicator: TA100, Metabolic Activation: NONE, Method: STANDARD PLATE) was “active; positive”.

In the case of `c1cc2c3c(c4c(ccc5ccccc54)cc3c1)[C@H]1O[C@@H]21`, the mutagenic call [1] is reported as “active; positive”, the mutagenic call (Test System: AMES SALMONELLA TYPHIMURIUM, Strain/Indicator: TA98, Metabolic Activation: NONE, Method: STANDARD PLATE) is reported as “active; positive” and the mutagenic call (Test System: AMES SALMONELLA TYPHIMURIUM, Strain/Indicator: TA98, Metabolic Activation: RAT, LIVER, S-9, AROCLOR 1254, Method: STANDARD PLATE) is reported as “active; positive”. For the same compound, the mutagenic call (Test System: CHINESE HAMSTER OVARY, Strain/Indicator: V-79/6-THIOGUANINE, Metabolic Activation: NONE, Method: FLASK ASSAY) was “active; positive”.
